Measurements from the NIST ThermoML archive (doi:10.1021/acs.jced.7b00083).
± gives the expanded uncertainty stated by the source.

Experiment: molar enthalpy of vaporization or sublimation
Conditions: 298.15 K; Crystal; Static calorimetry

## S=C1NCCN1 [imidazolidine-2-thione]
  molar enthalpy: 25.7 ± 0.359 kcal/mol
